Data on 19 compounds can be found in ChEMBL document CHEMBL6103536, “Chemical Space Profiling of SARS-CoV-2 PLpro Using DNA-Encoded Focused Libraries” (ACS Med Chem Lett, 2024).

Test [1] concerns the target Replicase polyprotein 1ab (Severe acute respiratory syndrome coronavirus 2) (UniProt P0DTD1). The test is described as follows: Inhibition of SARS Cov-2 papain-like protease extracted form Escherichia coli Rosetta (DE3) using fluorogenic substrate RLRGG-AMC assessed as inhibition rate by measuring fluorescent signal at 4 uM incubated for 30 mins relative to control.
Test [2] deals with Replicase polyprotein 1ab (Severe acute respiratory syndrome coronavirus 2, UniProt P0DTD1). The test is described as follows: Inhibition of SARS Cov-2 papain-like protease extracted form Escherichia coli Rosetta (DE3) using fluorogenic substrate RLRGG-AMC assessed as inhibition rate by measuring fluorescent signal incubated for 30 mins.

In general, inhibition refers to the share of the control response that was lost under treatment. With `Cc1ccc(NCc2ccc(CC(=O)O)cc2)cc1C(=O)N[C@H](C)c1cccc2ccccc12`, the inhibition result in test [1] is given as “Active; Compound Showed Weak Inhibitory Effect”. As a reminder, the IC50 is the concentration that gives 50% inhibition. On to `CCOC(=O)[C@@H]1CCN(Cc2ccc(-c3cccc([C@@H](C)NC(=O)c4cc(NC5CNC5)ccc4C)c3)s2)C1`, for which the IC50 in test [2] stood at 1.94 µM. Consider `Cc1ccc(NC2CNC2)cc1C(=O)N[C@H](C)c1cccc(-c2ccc(CN3CC[C@@H](C(=O)O)C3)s2)c1`, for which the IC50 in test [2] turned out to be 0.27 µM. For `Cc1ccc(NC(=O)c2cc(Br)cnc2Cl)cc1C(=O)N[C@H](C)c1cccc2ccccc12`, the inhibition in test [1] was 19%.

Take `Cc1ccc(NC(=O)c2cc(Br)cnc2O)cc1C(=O)N[C@H](C)c1cccc2ccccc12`: the inhibition entry in test [1] is given as “Active; Compound Showed Weak Inhibitory Effect”. Regarding `C[C@@H](NC(=O)c1cc(N)ccc1O)c1cccc2ccccc12`, the inhibition in test [1] stood at 6%. Regarding `Cc1ccc(NC(=O)c2cccs2)cc1C(=O)N[C@H](C)c1cccc2ccccc12`, in test [1], the inhibition entry was “Active; Compound Showed Weak Inhibitory Effect”.

As for `Cc1ccc(N)cc1C(=O)N[C@H](C)c1cccc(-c2ccc(C=O)s2)c1`, the inhibition in test [1] is 30%.

For `CC[C@@H](C)[C@@H](NC(=O)c1ccc(-c2cccc([C@@H](C)NC(=O)c3cc(N)ccc3C)c2)s1)C(=O)OC`, the inhibition in test [1] is 73%. In addition, in test [2], the IC50 was 2.72 µM. As to `Cc1ccc(NC(=O)c2ccnc(O)c2)cc1C(=O)N[C@H](C)c1cccc2ccccc12`, in test [1], the inhibition came to 74%. As to `CCOC(=O)CCCNCc1ccc(-c2cccc([C@@H](C)NC(=O)c3cc(N)ccc3C)c2)s1`, the inhibition entry in test [1] is “Active; Compound Showed Weak Inhibitory Effect”. Still for that read-out and setting: under `Cc1ccc(NC(=O)Oc2ccc([N+](=O)[O-])cc2)cc1C(=O)N[C@H](C)c1cccc2ccccc12` stands 27%. Still for that read-out and setting: the same measure for `Cc1ccc(NC(=O)c2cccnc2O)cc1C(=O)N[C@H](C)c1cccc2ccccc12`: “Active; Compound Showed Weak Inhibitory Effect”.

Turning to `Cc1ccc(NC(=O)c2ccc(Cl)s2)cc1C(=O)N[C@H](C)c1cccc2ccccc12`, in test [1], the inhibition was found to be 13%. For the same compound, the IC50 in test [2] was > 20 µM. As to `COc1ccc([N+](=O)[O-])c(C(=O)Nc2ccc(C)c(C(=O)N[C@H](C)c3cccc4ccccc34)c2)c1`, in test [1], the inhibition stood at 53%.

Turning to `COC(=O)Cc1ccc(CNc2ccc(C)c(C(=O)N[C@H](C)c3cccc4ccccc34)c2)cc1`, the inhibition in test [1] is 21%. Further, the IC50 in test [2] is 2.91 µM. For the compound `Cc1ccc(N)cc1C(=O)N[C@H](C)c1cccc2ccccc12`, the inhibition in test [1] is 68%. In the case of `COC(=O)[C@@H](CCC(=O)OC(C)(C)C)NCc1ccc(-c2cccc([C@@H](C)NC(=O)c3cc(N)ccc3C)c2)s1` (racemic), in test [1], the inhibition came to 81%. Moreover, the IC50 in test [2] was 4.71 µM. As to `CCOC(=O)CCCNCc1ccc(-c2cccc([C@@H](C)NC(=O)c3cc(NC4CNC4)ccc3C)c2)s1`, the IC50 in test [2] was determined as 0.25 µM.
